Laboratory results as given in patent US20230047102A1, “PHARMACEUTICAL COMPOSITIONS COMPRISING N-[1-(5-CYANO-PYRIDIN-2-YLMETHYL)-1H-PYRAZOL-3-YL]-2-[4-(1-TRIFLUOROMETHYL-CYCLOPROPYL)-PHENYL]-ACETAMIDE” (Idorsia Pharmaceuticals Ltd, priority 2019, published 2023).

Columns and labels:
[1] = Steady-state exposure with 60 mg once-daily dose in adults; type: in vivo, human; conditions: 60 mg once-daily dose at steady state in adults; 95% confidence interval 11.2, 16.7
Procedure: The starting dose of study treatment for the sentinel cohort (dose level 1) will be based on body weight categories (based on subjects' body weight on Day 1), as detailed in the table below. This study intends to target exposures equivalent to those observed with a 60 mg once-daily dose at steady state in adults (area under the concentration versus time curve during 1 dosing interval [AUCT] of 13.7 μgxh/mL [95% confidence interval (CD: 11.2, 16.7 μgxh/m14. Based on the exposure data obtained from the sentinel cohort, the doses may be adjusted if required to achieve the targeted exposure in the main cohort.

[2] = subject to certain variations of this value found in the literature; cited from earlier work

area under the concentration versus time curve during 1 dosing interval [AUCT] [1] | Compound | hydrophilic-lipophilic balance (HLB) value [2]
13.7 μgxh/mL | N#Cc1ccc(Cn2ccc(NC(=O)Cc3ccc(C4(C(F)(F)F)CC4)cc3)n2)nc1 [NBI-827104, N-[1-(5-cyano-pyridin-2-ylmethyl)-1H-pyrazol-3-yl]-2-[4-(1-trifluoromethyl-cyclopropyl)-phenyl]-acetamide] | 
 | CCCCCCCCCCCCOS(=O)(=O)[O-].[Na+] [SLS, Sodium lauryl sulfate] | about 40
 | Poloxamer 188 | about 29
